According to patent publication US8524302B2, “Natural flavour enhancers and methods for making same” (Pepsico, priority 2009, dated 2013):
“Also recorded” adds a separate entry of the source.

Tests used:
sensory panel [1] = assay: Sensory (triangle) tests: kokumi intensity in chicken broth; assay type: in vivo; details: for Kokumi intensity (0-5): pH 6.5, scale 0-5 (blank = 2); for Sensory descriptors: pH 6.5; for kokumi effect (in words): Table 10
Protocol: (§1) Unless otherwise indicated, all sensory tests for the samples are determined using triangle tests (Wieser and Belitz, Z. Lebensm. Unters. Forsch., 1975, 159, 65-72) in three different sessions. The sensory panel is trained to evaluate aqueous solutions (2 mL each) of the following reference taste compounds dissolved in bottled water with a pH of 6.0: sucrose (25 mmol/L) for sweet taste; lactic acid (20 mmol/L) for sour taste; NaCl (30 mmol/L) for salty taste; caffeine (1 mmol/L) for bitter taste; and MSG (3 mmol/L) for umami taste, tannic acid (0.05%) for puckering astringency, and quercetin-O-β-D-glucopyranoside (0.01 mmol/L) for a velvety astringent, mouth-drying oral sensation. For the training of viscosity, a gelatin solution (0.5% in water) was used. […] Sensory analyses were performed in a sensory panel room at 19-22° C. in three different sessions using nose clamps.
(§2) For recording the taste profiles, samples are prepared as indicated in the examples below. Flavor profiles of samples are determined in a triangle test in three different sessions. Panelists refrain from eating or drinking for at least 1 hour prior to the session. At the start of the session and before each trial, the subjects rinsed with water and expectorated. The participants receive a set of two blanks and one taste sample. Liquids are swirled around in the mouth briefly and expectorated. […] Each sample with additive is compared to two reference samples without additives. Kokumi intensity is rated according to a scale from 0 to 5 (with 5 being the most intensive). Punch refers to an initial kokumi sensation experienced in the mouth within 0-3 seconds from the time when a food or liquid is put in the mouth, while long-lasting refers to kokumi felt after 10-60 seconds therefrom.
Sensory (triangle) tests are performed by dilution of 3 grams of chicken broth concentrate (Gourmet Bouillon Huhn; Maggi, Singen, Germany) with 100 mL water (Evian®). Additives are added as specified in table below. The pH-value of all samples is adjusted to 6.5 using formic acid (0.1 mol/L) or sodium hydroxide (0.1 mol/L). […] For each sample, kokumi intensity is rated and panelists were asked to describe sensory characteristics.

sensory panel [2] = assay: Sensory (triangle) tests of the compounds in water; assay type: in vivo; details: for Sensory descriptors / Intensity (0-5): additive 10 mmol/L; for Sensory descriptors: pH 6.5; for Intensity (0-5): pH 6.5, aroma and taste intensity, scale 0-5; for kokumi sensation (in words): without inducing or glutamate-containing composition
Protocol: as §1, §2
Sensory (triangle) tests are performed by dissolving the listed compounds in water (Evian®). Additives are added as specified in table below. The pH-value of all samples is adjusted to 6.5 using formic acid (0.1 mol/L) or sodium hydroxide (0.1 mol/L). For each sample, aroma and taste intensity is rated and panelists are asked to describe sensory characteristics.

Molecule	Kokumi intensity (0-5) (sensory panel [1]; additive 10 mmol/L)	Sensory descriptors (sensory panel [2])	Intensity (0-5) (sensory panel [2])	further results
C/C=C/[S+]([O-])C[C@H](N)C(=O)O (mixture of isomers) [(E)-S-1-propenyl-L-cysteine-(±)-SO]	2.2	onion aroma	0	–
C/C=C\[S+]([O-])C[C@H](N)C(=O)O (mixture of isomers) [(Z)-S-1-propenyl-L-cysteine-(±)-SO]	2.2	tongue covering, pungent	1	–
C=CC[S+]([O-])C[C@H](NC(=O)CC[C@H](N)C(=O)O)C(=O)NCC(=O)O (mixture of isomers) [S-allyl-GSH-(±)-SO, S-allyl-γ-L-Glu-L-Cys-(±)-SO-Gly]	2.8	flavourless	0	–
C=CC[S@+]([O-])C[C@H](N)C(=O)O (racemic) [S-allyl-L-cysteine-(±)-SO]	2.4	–	1	–
CC[S+]([O-])C[C@H](NC(=O)CC[C@H](N)C(=O)O)C(=O)NCC(=O)O (mixture of isomers) [S-ethyl-GSH-(±)-SO, S-ethyl-γ-L-Glu-L-Cys-(±)-SO-Gly]	2	flavourless	0	Sensory descriptors (sensory panel [1]; additive 10 mmol/L): same intensity as blank
C[S+]([O-])C[C@H](NC(=O)CC[C@H](N)C(=O)O)C(=O)NCC(=O)O (mixture of isomers) [S-methyl-GSH-(±)-SO, S-methyl-γ-L-Glu-L-Cys-(±)-SO-Gly]	2	flavourless	0	Sensory descriptors (sensory panel [1]; additive 10 mmol/L): same intensity as blank
CCC[S+]([O-])C[C@H](NC(=O)CC[C@H](N)C(=O)O)C(=O)NCC(=O)O (mixture of isomers) [S-propyl-GSH-(±)-SO, S-propyl-γ-L-Glu-L-Cys-(±)-SO-Gly]	2	flavourless	0	Sensory descriptors (sensory panel [1]; additive 10 mmol/L): same intensity as blank
C/C=C/[S+]([O-])C[C@H](NC(=O)CC[C@H](N)C(=O)O)C(=O)O (mixture of isomers) [γ-L-glutamyl-(E)-S-1-propenyl-L-cysteine-(±)-SO]	2.5	onion aroma	0.5	–
C=CC[S+]([O-])C[C@H](NC(=O)CC[C@H](N)C(=O)O)C(=O)O (mixture of isomers) [γ-L-glutamyl-S-allyl-L-cysteine-(±)-SO]	2.5	burning	0.5	–
CC[S+]([O-])C[C@H](NC(=O)CC[C@H](N)C(=O)O)C(=O)O (mixture of isomers) [γ-L-glutamyl-S-ethyl-L-cysteine-(±)-SO]	2.2	flavourless	0	–
C[S+]([O-])C[C@H](NC(=O)CC[C@H](N)C(=O)O)C(=O)O (mixture of isomers) [γ-L-glutamyl-S-methyl-L-cysteine-(±)-SO]	2.5	flavourless	0	–
CCC[S+]([O-])C[C@H](NC(=O)CC[C@H](N)C(=O)O)C(=O)O (mixture of isomers) [γ-L-glutamyl-S-propyl-L-cysteine-(±)-SO]	2.1	flavourless	0	–
C/C=C/SC[C@H](N)C(=O)O [(E)-S-1-propenyl-L-cysteine]	2.5	fresh onion aroma	1	–
C/C=C\SC[C@H](N)C(=O)O [(Z)-S-1-propenyl-L-cysteine]	3.1	–	1	Kokumi intensity (0-5) (sensory panel [1]; additive 5 mmol/L): 3.1
N[C@@H](CCC(=O)N[C@@H](CS)C(=O)NCC(=O)O)C(=O)O [GSH, glutathione, reference compound]	3.5	–	–	–
N[C@@H](CCC(=O)O)C(=O)[O-].[Na+] [MSG, mono sodium glutamate, reference compound]	2	–	–	kokumi effect (in words) (sensory panel [1]): no kokumi effect; Sensory descriptors (sensory panel [1]; additive 10 mmol/L): higher umami intensity; also recorded: increased umami; kokumi sensation (in words) (sensory panel [2]): no kokumi effect
C/C=C/SC[C@H](NC(=O)CC[C@H](NCC(=O)[C@@H](O)[C@H](O)[C@H](O)CO)C(=O)O)C(=O)O [N-(1-Deoxy-D-fructos-1-yl)-γ-L-glutamyl-(E)-S-1-propenyl-L-cysteine]	–	–	–	Kokumi intensity (0-5) (sensory panel [1]; additive 4 mmol/L): 3.3

Molecule	Kokumi intensity (0-5) (sensory panel [1]; additive 10 mmol/L)	Sensory descriptors (sensory panel [2])	Intensity (0-5) (sensory panel [2])	further results
[Cl-].[Na+] [NaCl, sodium chloride, reference compound]	–	–	–	kokumi effect (in words) (sensory panel [1]): no kokumi effect; Sensory descriptors (sensory panel [1]; additive 30 mmol/L): more salty than the negative control; also recorded: increased salty taste; Kokumi intensity (0-5) (sensory panel [1]; additive 30 mmol/L): 2; kokumi sensation (in words) (sensory panel [2]): no kokumi effect
C=CCSC[C@H](NC(=O)CC[C@H](N)C(=O)O)C(=O)NCC(=O)O [S-allyl-GSH, S-allyl-γ-L-Glu-L-Cys-Gly]	3.2	–	0	–
CCSC[C@H](NC(=O)CC[C@H](N)C(=O)O)C(=O)NCC(=O)O [S-ethyl-GSH, S-ethyl-γ-L-Glu-L-Cys-Gly]	2.3	–	0	–
CCSC[C@H](N)C(=O)O [S-ethyl-L-cysteine]	2.7	–	1	–
CSC[C@H](N)C(=O)O [S-methyl-L-cysteine]	2.4	flavourless	0	–
CSC[C@H](NC(=O)CC[C@H](N)C(=O)O)C(=O)NCC(=O)O [S-methyl-glutathione]	2.8	–	0	–
CCCSC[C@H](NC(=O)CC[C@H](N)C(=O)O)C(=O)NCC(=O)O [S-propyl-GSH, S-propyl-γ-L-Glu-L-Cys-Gly]	2.1	flavourless	0	–
CCCSC[C@H](N)C(=O)O [S-propyl-L-cysteine]	3.5	–	2	Kokumi intensity (0-5) (sensory panel [1]; additive 5 mmol/L): 3.5
C=CCSC[C@H](NC(=O)CC[C@H](N)C(=O)O)C(=O)O [γ-L-glutamyl-S-allyl-L-cysteine]	3.7	–	1	–
CCSC[C@H](NC(=O)CC[C@H](N)C(=O)O)C(=O)O [γ-L-glutamyl-S-ethyl-L-cysteine]	3.1	tongue covering	0.5	–
CSC[C@H](NC(=O)CC[C@H](N)C(=O)O)C(=O)O [γ-L-glutamyl-S-methyl-L-cysteine]	3.5	flavourless	0	–
CCCSC[C@H](NC(=O)CC[C@H](N)C(=O)O)C(=O)O [γ-L-glutamyl-S-propyl-L-cysteine]	2.8	tongue covering	0.5	–
S-allyl-L-cysteine-(+)-SO [Alliin]	2.5	–	–	–
S-ethyl-L-cysteine-(±)-SO	2.1	–	1	–
S-methyl-L-cysteine-(±)-SO	2.1	flavourless	0	–
S-propyl-L-cysteine-(±)-SO	2.3	–	1	Kokumi intensity (0-5) (sensory panel [1]; additive 5 mmol/L): 2.3
